PMC9765455 (Science Translational Medicine, 2022)
Like-named read-outs stand apart in the source and are kept apart here.

Tests used:
[1] = tested on: SARS-CoV-2 Delta; assay: CPE-based cell viability assay (MTT); details: read-out: EC50 against SARS-CoV-2 Delta
[2] = tested on: host DNA; parameters: method as in PMID 33961695; details: cell-based assays; cited from earlier work
[3] = tested on: COVID-19; details: cited from earlier work
[4] = tested on: P-glycoprotein (P-gp); details: cited from earlier work
[5] = tested on: SARS-CoV-2 Alpha (lineage B.1.1.7); parameters: species or system Syrian hamsters; details: hamster, in vivo, 200 mg/kg
[6] = tested on: HCoV-OC43; details: cited from earlier work
[7] = tested on: SARS-CoV-2 Omicron BA.2; parameters: species or system Syrian hamsters; details: hamster, in vivo, 200 mg/kg
[8] = tested on: MERS-CoV; details: cited from earlier work
[9] = tested on: SARS-CoV-2 Gamma (lineage P.1); parameters: species or system Syrian hamsters; details: hamster, in vivo, 200 mg/kg
[10] = tested on: Calu-3 cells, Vero-TMPRSS2 cells, primary human bronchial epithelial cells; assay: Compound cytotoxicity assay (CellTiter-Glo / LDH-Glo); assay type: cell-based; details: at the examined concentrations, 3 days
[11] = tested on: SARS-CoV-2 Omicron BA.2.75; parameters: species or system Syrian hamsters; details: hamster, in vivo, 200 mg/kg
[12] = male, Syrian, hamster, in vivo
[13] = tested on: SARS-CoV-2 VOCs; assay: CPE-based MTT assay against SARS-CoV-2 VOCs in 293T-hACE2-TMPRSS2 cells (fig. S4); assay type: cell-based; details: 293T-hACE2-TMPRSS2, fig. S4
Protocol: Antiviral compounds and antibodies were serially diluted 2-fold increments by culture medium containing 2% FBS and plated on 96-well microplates. The diluted compounds in the plates were mixed with SARS-CoV-2 and cell suspensions. The diluted antibodies were initially incubated with SARS-CoV-2 for 30 minutes and then added to the cell suspension. Cells in the plates were cultured for 2 to 3 days, and then exposed to MTT (3-[4,5-dimethyl-2-thiazolyl]-2,5-diphenyl-2H-tetrazolium bromide) (Nacalai Tesque). Cell viability was determined by measurement of absorbance at 560 nm and 690 nm. EC50 values were defined in GraphPad Prism version 8.4.3 (GraphPad Software) with a variable slope (four parameters).
Cytopathic effect (CPE) in 293T-hACE2-TMPRSS2 cells induced by SARS-CoV-2 infection was measured at 3 dpi by 3-[4,5-dimethyl-2-thiazolyl]-2,5-diphenyl-2H-tetrazolium bromide (MTT) […]
assay. […] Uninfected cells
(1 picture or pasted object on this page, not shown here)

[14] = tested on: SARS-CoV-2 Omicron BA.5; parameters: species or system Syrian hamsters; details: hamster, in vivo, 200 mg/kg
[15] = tested on: SARS-CoV-2 Omicron BA.1; parameters: species or system Syrian hamsters; details: hamster, in vivo, 200 mg/kg
[16] = tested on: SARS-CoV; details: cited from earlier work
[17] = healthy adults, phase 1 trial; cited from earlier work
[18] = Pharmacokinetics after single oral administration
[19] = tested on: P-glycoprotein (P-gp); assay: P-gp substrate assessment; details: inferred from CP-100356 enhancement in Vero-TMPRSS2
[20] = Severe acute respiratory syndrome coronavirus 2, 293 T-hACE2-TMPRSS2
[21] = Severe acute respiratory syndrome coronavirus 2, Vero/TMPRSS2, Vero-TMPRSS2
[22] = Severe acute respiratory syndrome coronavirus 2, Vero/TMPRSS2, Vero-TMPRSS2 with CP-100356

Work on `CC(C)C(=O)OC[C@H]1O[C@@H](n2ccc(NO)nc2=O)[C@H](O)[C@@H]1O` [Molnupiravir, reference compound] yielded an EC50 [1, 20] of 3680 ± 1090 nM, an EC50 [1, 21] of 3170 ± 217 nM and an EC50 [1, 22] of 2280 ± 118 nM. The mutagenesis [2] was “mutagenesis not only for viral RNA but also for host DNA” and the “decrease of the risk of hospitalization for COVID-19” value ([3]; clinical trial) was 30%.

Work on `O=c1nc(NO)ccn1[C@@H]1O[C@H](CO)[C@@H](O)[C@H]1O` [NHC, N-hydroxycytidine] yielded an EC50 [1, 20] of 538 ± 142 nM, an EC50 [1, 21] of 360 ± 49.4 nM and an EC50 [1, 22] of 677 ± 8.89 nM.

In the case of `CC(C)(C)[C@H](NC(=O)C(F)(F)F)C(=O)N1C[C@H]2[C@@H]([C@H]1C(=O)N[C@H](C#N)C[C@@H]1CCNC1=O)C2(C)C` [Nirmatrelvir], the “substrate of P-gp” value [4] is given as “major substrates”, the EC50 [1, 20] is given as 37 ± 5.3 nM and the EC50 [1, 21] is given as greater than 1000 nM. The EC50 [1, 22] was 132 ± 32 nM and the “reduction in the risk of hospitalization or death” value [3] was 88%.

For `CCC(CC)COC(=O)[C@H](C)N[P@](=O)(OC[C@H]1O[C@@](C#N)(c2ccc3c(N)ncnn23)[C@H](O)[C@@H]1O)Oc1ccccc1` [Remdesivir], the “substrate of P-gp” value [4] is listed as “major substrates”, the EC50 [1, 20] is listed as less than 3.9 nM and the EC50 [1, 21] is listed as greater than 500 nM. It also gave an EC50 [1, 22] of 32 ± 4.52 nM.

For `Cn1cnc(Cn2c(=O)[nH]/c(=N\c3cc4cn(C)nc4cc3Cl)n(Cc3cc(F)c(F)cc3F)c2=O)n1` [S-217622], the “Fig. 3B: Virus titer” value [5] is listed as “n.d.(=100)”, the EC90 [6] is listed as 74 nM and the EC50 [1, 20] is listed as 26 ± 6.65 nM. For the same compound, the EC50 [1, 21] was 407 ± 21.3 nM, the EC50 [1, 22] was 69 ± 11.2 nM and the “Fig. 3B: Virus titer” value [7] was “n.d.(=100)”. For the same compound, the EC50 [8] was 1400 nM, the “Fig. 3B: Virus titer” value [9] was “n.d.(=100)” and the cytotoxicity [10] was “No cytotoxicity was observed”. For the same compound, the “Fig. 3A: Viral RNA” value [11] was “n.d.(=1)”, the “Fig. 3B: Virus titer” value [11] was “n.d.(=100)” and the “time at which plasma concentration reached the maximum” value [12] was 0.5 to 2.67 h. The “antiviral activity against VOCs” value [13] was “exhibited antiviral activity against all VOCs”, the “Fig. 3B: Virus titer” value [14] was “n.d.(=100)” and the “Fig. 3A: Viral RNA” value [15] was “n.d.(=1)”. For the same compound, the “Fig. 3B: Virus titer” value [15] was “n.d.(=100)”, the EC50 [16] was 210 nM and the bioavailability and tolerability [17] was “favorable bioavailability and tolerability”. For the same compound, the “Cmax and AUC dose proportionality” value ([18]; 10 to 100 mg/kg) was “increased more than the dose ratio”, the bioavailability ([18]; hamsters, plasma) was “excellent bioavailability” and the half-life ([18]; male, Syrian, hamster, plasma, po, 100 mg/kg) was 3.43 to 4.46 h. For the same compound, the “substrate of P-gp” value [19] was “substrate of P-gp”.
